For 55 compounds, IC50 results are on record in PubChem BioAssay AID463109 (Sanford-Burnham Center for Chemical Genomics, 2010).

Structures are written as SMILES. Active and inactive are the calls of the source.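 The calls were made as follows: active = mean IC50 below 10 µM; inactive = the rest.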

The target of this experiment is Apelin receptor (Homo sapiens) (UniProt P35414). The experiment is described as follows: APJ antagonists, beta-arrestin recruitment, SAR follow-up, cell-based, luminescence (AID 463109). Particulars: CHO-K1 AGTRL-1 PathHunter beta-arrestin luminescence. A general note: Arrestin recruitment assays detect the binding of arrestin to an activated receptor.
Chain of Apelin receptor (Homo sapiens) (P35414 whole entry, looked up): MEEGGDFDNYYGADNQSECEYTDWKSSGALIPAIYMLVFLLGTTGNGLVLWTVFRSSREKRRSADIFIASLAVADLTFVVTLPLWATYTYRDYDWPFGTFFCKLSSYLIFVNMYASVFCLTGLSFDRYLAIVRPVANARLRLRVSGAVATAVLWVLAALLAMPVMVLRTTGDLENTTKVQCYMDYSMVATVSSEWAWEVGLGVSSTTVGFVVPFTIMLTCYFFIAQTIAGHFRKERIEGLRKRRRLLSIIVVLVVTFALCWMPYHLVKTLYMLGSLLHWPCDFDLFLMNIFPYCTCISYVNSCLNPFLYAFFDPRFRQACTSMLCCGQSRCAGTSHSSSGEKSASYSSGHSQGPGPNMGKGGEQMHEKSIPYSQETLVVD
With `O=C(COC(=O)c1cnccn1)c1ccc(Cl)c([N+](=O)[O-])c1`, the IC50 (in general, the concentration needed to halve the response being measured) was 8.31 µM.

On to `Cc1ccc(OCC(=O)OCC(=O)c2cccc([N+](=O)[O-])c2)cc1C`, for which the IC50 result is “inactive”.

Regarding `O=C(COC(=O)c1cccnc1)c1ccc(Cl)c(Cl)c1`, the IC50 entry was “inactive”.

For `O=C(CNS(=O)(=O)c1ccccc1)OCC(=O)c1cccc([N+](=O)[O-])c1`, the IC50 result is “inactive”.

With `O=C(CNc1cccc(Cl)c1)c1ccc(Br)cc1`, the IC50 was > 79 µM (inactive).

Consider `COc1ccc(S(=O)(=O)NNc2nc(C)cc(C)n2)cc1[N+](=O)[O-]`, for which the IC50 entry was “inactive”.

Consider `Oc1cccc2ccc(/C=C/c3ccccc3Cl)nc12`, for which the IC50 result is “inactive”.

In the case of `CNC(=O)c1nnsc1S(=O)(=O)c1ccc(Cl)cc1`, the IC50 entry was “inactive”.

For the compound `Cc1cc(C)nc(NNS(=O)(=O)c2ccc(Cl)cc2)n1`, the IC50 was 8.98 µM.

Take `Cc1cccc2c1NC(=O)C2=Nc1ccc(Cl)cc1`: the IC50 was 8.16 µM.

Turning to `Cc1cc(C)nc(NNS(=O)(=O)c2c(F)cc(F)cc2Br)n1`, the IC50 was 2.9 µM.

`Cc1ccc(N=C2C(=O)Nc3c(C)cccc32)cc1`: the IC50 result was “inactive”.

In the case of `O=C1Nc2ccccc2C1=Nc1ccc(F)cc1`, the IC50 is 5.95 µM.

Consider `O=C(CNc1ccc(Br)cc1)c1ccccc1`, for which the IC50 is 2.26 µM.

`O=C(Nc1nc2ccc(F)cc2s1)c1ccccn1`: the IC50 entry was “inactive”.

For the compound `Cc1ccc2nc(C)cc(C(=O)OCC(=O)c3ccc(Cl)c([N+](=O)[O-])c3)c2c1`, the IC50 entry was “inactive”.

In the case of `Cc1ccc(C(=O)CNc2ccccc2)cc1`, the IC50 is 2.81 µM.

Regarding `S=C1NCCc2ccccc2C1c1ccccc1Cl` (stereo not given), the IC50 result is “inactive”.

In the case of `CC(C)Cc1nc2oc3c(Cl)ncnc3c2c2c1CCC2`, the IC50 entry is “inactive”.

Regarding `CC(C(=O)OCC(=O)c1cccc([N+](=O)[O-])c1)N1C(=O)C2C3C=CC(C3)C2C1=O` (stereo not given), the IC50 result was “inactive”.

Turning to `O=C(CNC(=O)c1ccco1)NCC(=O)OCC(=O)c1ccc(Cl)c([N+](=O)[O-])c1`, the IC50 is 5.42 µM.

On to `COc1cccc(/C=C/c2ccc3cccc(O)c3n2)c1OC`, for which the IC50 entry is “inactive”.

In the case of `CC(=O)c1ccc(N=C2C(=O)Nc3ccccc32)cc1`, the IC50 is 1.46 µM.

With `O=C1Nc2ccccc2C1=Nc1ccc(Br)cc1`, the concentration for half-maximal inhibition (IC50) was 5.52 µM.

On to `CCC1CCCCN1CC(=O)c1ccc(OC(F)F)cc1` (stereo not given), for which the IC50 result is “inactive”.

Consider `CC1(C)CC2(CC(c3ccccc3F)c3cc(Cl)c(O)cc3O2)NC(=S)N1` (stereo not given), for which the IC50 was 5.71 µM.

On to `CC(=O)Nc1ccc(NC(=O)CCC(=O)OCC(=O)c2ccc(C)c([N+](=O)[O-])c2)cc1`, for which the IC50 result was “inactive”.

Take `CSc1cccc(N=C2C(=O)Nc3ccccc32)c1`: the IC50 was 3.82 µM.

As for `O=C(Nc1nc2c(F)cc(F)cc2s1)c1ccccn1`, the IC50 was 7.55 µM.

For the compound `Cc1ccc(N=C2C(=O)Nc3ccc(Br)cc32)cc1`, the IC50 was 4.73 µM.

On to `Cc1cccc(N=C2C(=O)Nc3c(Cl)cccc32)c1`, for which the IC50 was 2.3 µM.

Turning to `O=C(COC(=O)c1ccncc1)c1ccc(Cl)c(Cl)c1`, the IC50 entry was “inactive”.

For the compound `Cc1ccc(C)c(NCC(=O)c2ccc(Cl)cc2)c1`, the IC50 is 0.886 µM.

As for `COc1ccccc1NCC(=O)c1ccc(Cl)cc1`, the IC50 was 3.46 µM.

Consider `O=C(CNc1ccccc1C(=O)O)c1ccccc1`, for which the IC50 is 2.92 µM.

On to `O=c1cc(CSc2ccc(Cl)cc2)nc(-c2ccccn2)[nH]1`, for which the IC50 entry is “inactive”.

For `CCOC(=O)C1=NNC(C(=O)c2ccc(Cl)cc2)C1c1ccccc1` (stereo not given), the IC50 entry was “inactive”.

Take `COc1ccc(S(=O)(=O)NNc2nc(C)cc(C)n2)cc1Br`: the IC50 entry is “inactive”.

On to `Cc1ccc(N=C2C(=O)Nc3ccccc32)cc1`, for which the IC50 entry is “inactive”.

Consider `NC(=O)c1ccccc1NCC(=O)c1ccc(Cl)cc1`, for which the IC50 was 2.89 µM.

As to `O=c1c2cc(Br)ccc2[nH]c(=S)n1Cc1ccccn1`, the IC50 result was “inactive”.

Turning to `O=S(=O)(NN=Cc1ccc(-c2ccccc2Cl)o1)c1ccccc1`, the IC50 result was “inactive”.

As for `CCOc1ccc(N=C2C(=O)Nc3ccc(C)c(Br)c32)cc1`, the IC50 is 6.58 µM.

Consider `CC(C)OC(=O)CN1C(=O)C(=O)c2ccccc21`, for which the 50% inhibitory concentration (IC50) is 4.14 µM.

For the compound `CCN(CC)CC(=O)c1ccc(-c2ccccc2)cc1`, the IC50 entry was “inactive”.

On to `CC(C)N1CCc2c(sc(NC(=O)c3cc(-c4cccs4)nc4ccccc34)c2C(N)=O)C1`, for which the IC50 result is “inactive”.

Take `COc1ccc(N=C2C(=O)Nc3ccc(C)c(Br)c32)cc1`: the IC50 was > 79 µM (inactive).

`COC(=O)C1NN=C(C(=O)c2ccc(Cl)cc2)C1c1ccc(OC)cc1` (stereo not given): the IC50 result was “inactive”.

Turning to `FC(F)(F)c1cccc(Sc2nc(-c3ccccc3)nnc2C(F)(F)F)c1`, the IC50 entry was “inactive”.

As to `COc1ccc(C(=O)CNc2cccc(F)c2)cc1`, the IC50 result was “inactive”.

Turning to `CC(C)(C)c1ccc(-n2nc(C#N)c(Cl)cc2=O)cc1`, the IC50 is 3.53 µM.

Regarding `Cc1cc(C)nc(NNS(=O)(=O)c2ccc(F)c(Cl)c2)n1`, the IC50 was 2.62 µM.

On to `Cc1ccc(C(=O)CNc2cc(C)ccc2C)cc1`, for which the IC50 was 2.31 µM.

In the case of `Cn1c(=O)c(C(=S)NC(=O)C2CC2)c(N)n(Cc2ccccc2)c1=O`, the IC50 entry is “inactive”.

Take `CCC[N+](CC#Cc1ccccc1)(CCC)CC(=O)c1ccc(Cl)cc1`: the IC50 entry was “inactive”.
